Laboratory results reported in patent publication US9944613B2, “Fumagillol spirocyclic compounds and fused bicyclic compounds and methods of making and using same” (Zafgen, Inc., priority 2015, dated 2018).
Where a name gives a salt, the structure may show the parent alone. Read-outs that look alike come from different tables or passages of the source.

Columns and labels:
[1] = test system: Diet Induced Obese (DIO) C57BL/6 mice; assay: 10 day DIO mouse model, weight loss vs. vehicle; type: in vivo; conditions: 240 h, 0.3 mpk sc once a day for 10 days
Source text: The objective of this study design was to investigate the efficacy of disclosed compounds in a 10 day DIO mouse model. Effects on body weight, food intake, hematology and blood chemistry were the primary readouts of this study design. Male, Diet Induced Obese (DIO) C57BL/6 mice, 19-21 weeks of age (13-15 weeks on high fat diet) were ordered from a certified vendor and upon receipt were housed on irradiated corncob bedding in micro-isolator cages on a 12-hour light-dark cycle (0700-1900) at 68-74° F. and 30-70% humidity. Mice were fed Research Diets D12492 (60% Kcal fat, 20% Kcal carbohydrate and 20% protein) and provided water ad libitum. DIO mice were received and housed in the facility for approximately two weeks prior to the start of test article administration. On Day −4 or −3, mice were randomized into study groups based on body weight and body weights were continued to be recorded daily for the duration of the study. Daily food intake was assessed starting on Study Day −2 by weighing of the food with hopper together to avoid loss of food in transfer.
(§1) Compounds were formulated into a 100% DMSO stock (at 9 mg/mL) prior to the start, and further diluted into the target working concentration using the vehicle of 10% DMSO in water. Prior to test article administration, starting on Day −3 a dosing acclimation occured with all animals receiving a subcutaneous injection of vehicle (10% DMSO) only for 3 days. Starting on Day 1, test compounds or vehicle were administered based on individual body weight, subcutaneously, once a day for 10 days. All mice were sacrificed on Day 11, 24 hours following the final dosing on Day 10. After sacrifice, whole blood was collected and analyzed for hematology and blood chemistry parameters.
(§2) Compounds were tested for weight loss vs. vehicle at 0.3 and 1.0 mpk sc (mg per kg animal weight delivered subcutaneously), and the results are shown in Table 2 below.

[2] = test system: rat DIO model (Sprague Dawley rats on high fat diet); assay: 11 day rat DIO model, weight loss vs. vehicle; type: in vivo; conditions: for Rat @ 1.0 mpk sc (%): 1.0 mpk sc once a day for 11 days; for inhibition in vivo at 0.3 mg/kg: Rattus norvegicus, 264 h, 0.3 mpk sc once a day for 11 days
Source text: The objective of this study design is to investigate the efficacy of disclosed compounds in an 11 day rat DIO model used to screen compounds for pharmacologic efficacy on endpoints related to obesity and metabolism. Effects on body weight, food intake, hematology and blood chemistries were the primary readouts of this study design. Male Sprague Dawley rats, approximately 8 weeks of age, were ordered from a certified vendor and housed on irradiated corncob bedding in micro-isolator cages, on a 12-hour light-dark cycle (0700-1900) at 68-74° F. and 30-70% humidity. Rats were fed Research Diets D12451 (45% High Fat) and provided water ad libitum. Rats were received and housed in the facility for at least two or three weeks prior to start of test article administration. On Day −4 or −3, rats were randomized into study groups based on body weight and body weights were continued to be recorded daily for the duration of the study. Daily food intake was assessed starting on Study Day −2 by weighing the hopper including the food to avoid loss of food in transfer.
as §1, with “for 11” for “for 10”, “All animals” for “All mice”, “11, approximately 2” for “11, 24”, “Day 11.” for “Day 10.”
as §2

[3] = test system: pregnant Sprague Dawley rats (embryo/fetal development); assay: Rat embryofetal development study; type: in vivo; conditions: 6 mpk subcutaneously once every three days, Gestation Days 6-18, pregnant rats
Source text: Study Summary Rat Embryofetal:
The objective of this study design was to evaluate the potential effects of disclosed compounds on embryo/fetal development when given subcutaneously to pregnant rats once every three days during the critical period of organogenesis (Gestation Days 6-18). Female, Sprague Dawley rats, approximately 10 weeks of age, time bred, were ordered from a certified vendor and housed individually housed in stainless steel cages suspended over flush pans, on a 12-hour light-dark cycle (0700-1900) at 20-26° C. and 30-70% humidity. Rats were fed a standard rodent chow and provided water ad libitum. Rats were received and housed in the facility for a period of approximately 1 to 2 days.
Compounds were formulated using 100% DMSO mixed in Sterile Water for Injection, resulting in 2% DMSO solution in water. If necessary, due to limited solubility of a test article, a higher percentage of DMSO solution in water was used. Groups of 8 mated and presumed pregnant female rats were given subcutaneous doses of vehicle or test article, once every three days, beginning on Gestation Day 6 and ending on Gestation Day 18 (Days 6, 9, 12, 15, and 18), maintained two more days, and then euthanized and necropsied on Gestation Day 20. Body weights was recorded for all animals on Gestation Days 5 (purpose of randomization), 6, 9, 12, 15, 18, and 20 (scheduled euthanasia). Food consumption by weight was recorded on Gestation Days 6, 9, 12, 15, 18, and 20 (scheduled termination).
At necropsy, the dams were examined visually for external abnormalities including palpable masses. The abdominal, thoracic, and cranial cavities and their contents were examined for abnormalities and findings will be recorded. The reproductive tract were examined to record the number of ovarian corpora lutea, the number and location of uterine implantation sites noting the position of the cervix, and the number of early resorptions, late resorptions, live fetuses, and dead fetuses. For dead fetuses and late resorptions, crown-to-rump length and weight were recorded, if possible, and the fetus was discarded. For viable fetuses, weight, sex, and grossly visible external abnormalities were recorded.

[4] = target: T1, recombinant human MetAP2 (Homo sapiens, UniProt P50579); assay: Inhibition of recombinant human MetAP2 activity (MAS peptide / amino acid oxidase / Amplex assay); type: biochemical
T1 construct: Flag; made in house
Experimental: Compounds are tested for their capacity to inhibit recombinant human MetAP2 activity using the following assay.
Flag tagged Human recombinant MetAP2 expressed and isolated for use as the enzyme source. 10 mM stock solutions of compounds were prepared in 100% DMSO and further diluted in 100% DMSO required concentration to 1 mM stocks. The stock compound solutions and DMSO vehicle controls were diluted to target final compound concentrations using assay buffer to a final concentration of 50 mM HEPES containing 100 mM NaCl, pH adjusted to 7.5. The MAS peptide was formulated to a 7.5 mM stock in distilled water and prior to use further diluted 1:4. […] 40 μl of enzyme was mixed with 100 μl of MnCl2 then further diluted in assay buffer to a final concentration of 16 μg/ml. To test for compound effect on MetAP2 enzyme activity, 5 μl of test compound, 10 μl of MAS substrate/amino acid oxidase mixture, 10 μl of MetAP2 was added to test wells in a 384 well black plate with blank wells containing no enzyme, replaced with 10 μl of assay buffer. All compounds were tested in duplicate on two occasions on the same day.
The plate was sealed with a TopSeal A cover and mixed briefly on an orbital mixer at 900 rpm. The plate was incubated for a further 25 minutes at 25° C. A 5× stock of Amplex buffer was prepared (0.25M sodium phosphate, pH 7.4) and stored at 4° C. When preparing for use the stock was diluted with distilled water. […] Horse radish peroxidase was diluted in […] of Amplex buffer, 100 μl of this was combined with 50 μl of Amplex Ultrared in […] of 1× Amplex buffer to generate sufficient detection reagent for a 384 well plate. 25 μl detection reagent was added to each well of the test plate, which was re-sealed and mixed briefly on an orbital shaker. The plate was transferred to an Envision Multi-label reader and RFU measured corresponding to excitation 531 nm and emission 595 nm. At the end of the MetAP2 incubation 25 μl Amplex/HRP mixture per well was added and the plate read plate on a plate reader.

[5] = Flag tagged human recombinant MetAP2, 25 minutes at 25° C., read-out: MetAP2 IC50

T1 sequence (P50579 whole entry): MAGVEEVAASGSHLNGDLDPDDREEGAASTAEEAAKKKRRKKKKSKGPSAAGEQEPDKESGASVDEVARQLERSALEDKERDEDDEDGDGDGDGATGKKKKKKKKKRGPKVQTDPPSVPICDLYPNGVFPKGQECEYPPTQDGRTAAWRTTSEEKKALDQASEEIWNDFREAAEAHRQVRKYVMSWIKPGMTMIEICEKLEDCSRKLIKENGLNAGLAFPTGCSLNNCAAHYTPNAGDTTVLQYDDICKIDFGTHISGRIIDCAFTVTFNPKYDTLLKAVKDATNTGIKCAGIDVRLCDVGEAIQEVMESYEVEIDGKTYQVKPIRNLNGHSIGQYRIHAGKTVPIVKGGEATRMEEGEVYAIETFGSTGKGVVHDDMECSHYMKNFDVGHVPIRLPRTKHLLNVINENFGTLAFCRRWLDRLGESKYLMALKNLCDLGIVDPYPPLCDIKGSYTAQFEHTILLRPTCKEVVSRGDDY

| Structure (SMILES) | inhibition in vivo at 0.3 mg/kg [1] | Rat @ 1.0 mpk sc (%) [2] | inhibition in vivo at 0.3 mg/kg [2] | Rat Embryofetal @6 mpk [3] | IC50 [4, 5] | IC50 [4] |
| --- | --- | --- | --- | --- | --- | --- |
| CO[C@@H]1[C@H](OC(=O)N2CC3(COC3)C2)CC[C@]2(CO2)[C@H]1[C@@]1(C)O[C@@H]1CC=C(C)C [Example 2, (3R,4S,5S,6R)-5-methoxy-4-((2R,3R)-2-methyl-3-(3-methylbut-2-enyl)oxiran-2-yl)-1-oxaspiro[2.5]octan-6-yl 2-oxa-6-azaspiro[3.3]heptane-6-carboxylate] | 11.1% | 10.2% | 8% | Positive | < 50 nM | – |
| CO[C@@H]1[C@H](OC(=O)N2CC3(CCOCC3)C2)CC[C@]2(CO2)[C@H]1[C@@]1(C)O[C@@H]1CC=C(C)C [Example 3, (3R,4S,5S,6R)-5-methoxy-4-((2R,3R)-2-methyl-3-(3-methylbut-2-enyl)oxiran-2-yl)-1-oxaspiro[2.5]octan-6-yl 7-oxa-2-azaspiro[3.5]nonane-2-carboxylate] | 18.9% | – | 7.9% | – | < 50 nM | – |
| CO[C@@H]1[C@H](OC(=O)N2CCC3(CC2)COC3)CC[C@]2(CO2)[C@H]1[C@@]1(C)O[C@@H]1CC=C(C)C [Example 5, (3R,4S,5S,6R)-5-methoxy-4-((2R,3R)-2-methyl-3-(3-methylbut-2-enyl)oxiran-2-yl)-1-oxaspiro[2.5]octan-6-yl 2-oxa-7-azaspiro[3.5]nonane-7-carboxylate] | 16.7% | – | 6.6% | – | – | < 50 nM |
| CO[C@@H]1[C@H](OC(=O)N2CC3(CCOC3)C2)CC[C@]2(CO2)[C@H]1[C@@]1(C)O[C@@H]1CC=C(C)C [Example 6, (3R,4S,5S,6R)-5-methoxy-4-((2R,3R)-2-methyl-3-(3-methylbut-2-enyl)oxiran-2-yl)-1-oxaspiro[2.5]octan-6-yl 6-oxa-2-azaspiro[3.4]octane-2-carboxylate] | 13.9% | – | 2.7% | – | < 50 nM | – |
| CO[C@@H]1[C@H](OC(=O)N2CC3(CCN(CC(F)F)CC3)C2)CC[C@]2(CO2)[C@H]1[C@@]1(C)O[C@@H]1CC=C(C)C [Example 9, (3R,4S,5S,6R)-5-methoxy-4-((2R,3R)-2-methyl-3-(3-methylbut-2-enyl)oxiran-2-yl)-1-oxaspiro[2.5]octan-6-yl 7-(2,2-difluoroethyl)-2,7-diazaspiro[3.5]nonane-2-carboxylate formate] | 21.5% | – | – | Positive | 50 to 500 nM | – |
| CO[C@@H]1[C@H](OC(=O)NC2CC3(C2)CN(C)C3)CC[C@]2(CO2)[C@H]1[C@@]1(C)O[C@@H]1CC=C(C)C [Example 10, (3R,4S,5S,6R)-5-methoxy-4-((2R,3R)-2-methyl-3-(3-methylbut-2-enyl)oxiran-2-yl)-1-oxaspiro[2.5]octan-6-yl 2-methyl-2-azaspiro[3.3]heptan-6-ylcarbamate formate] | 8.4% | 7.2% | 2% | – | < 50 nM | – |
| CO[C@@H]1[C@H](OC(=O)N2C[C@H]3CN(CC(F)F)C[C@H]3C2)CC[C@]2(CO2)[C@H]1[C@@]1(C)O[C@@H]1CC=C(C)C [Example 19, (3aR,6aS)-((3R,4S,5S,6R)-5-methoxy-4-((2R,3R)-2-methyl-3-(3-methylbut-2-enyl)oxiran-2-yl)-1-oxaspiro[2.5]octan-6-yl) 5-(2,2-difluoroethyl)hexahydropyrrolo[3,4-c]pyrrole-2(1H)-carboxylate] | 22.6% | – | 7.6% | – | 50 to 500 nM | – |
| CO[C@@H]1[C@H](OC(=O)N2CC3C(C2)C3(F)F)CC[C@]2(CO2)[C@H]1[C@@]1(C)O[C@@H]1CC=C(C)C (stereo partly drawn) [Example 22, (3R,4S,5S,6R)-5-methoxy-4-((2R,3R)-2-methyl-3-(3-methylbut-2-enyl)oxiran-2-yl)-1-oxaspiro[2.5]octan-6-yl 6,6-difluoro-3-azabicyclo[3.1.0]hexane-3-carboxylate] | 15.5% | – | – | Negative | < 50 nM | – |
| CO[C@@H]1[C@H](OC(=O)N2CCC3(CCOC3)CC2)CC[C@]2(CO2)[C@H]1[C@@]1(C)O[C@@H]1CC=C(C)C [Example 24, (3R,4S,5S,6R)-5-methoxy-4-((2R,3R)-2-methyl-3-(3-methylbut-2-enyl)oxiran-2-yl)-1-oxaspiro[2.5]octan-6-yl 2-oxa-8-azaspiro[4.5]decane-8-carboxylate] | 20.5% | – | 6.3% | – | 50 to 500 nM | – |
| CO[C@@H]1[C@H](OC(=O)N2CCC3(CCOCC3)C2)CC[C@]2(CO2)[C@H]1[C@@]1(C)O[C@@H]1CC=C(C)C [Example 27, (3R,4S,5S,6R)-5-methoxy-4-((2R,3R)-2-methyl-3-(3-methylbut-2-enyl)oxiran-2-yl)-1-oxaspiro[2.5]octan-6-yl 8-oxa-2-azaspiro[4.5]decane-2-carboxylate] | 16.3% | – | – | Positive | 50 to 500 nM | – |
